# System: hypertensive subjects
# Assay: Seated automated office blood pressure (AOBP) in randomized, placebo-controlled, dose-ranging study
# Assay type: in vivo, human
# Conditions: for Placebo-adjusted reduction in AOBP SBP, exploratory MMRM analysis by BMI: data not shown; for Mean (SD) Automated Office-Measured Systolic Blood Pressure at Wk 8 / Mean (SD) Change from Baseline at Week 8 in Automated Office-Measured Systolic Blood Pressure / Mean (SD) Automated Office-Measured Diastolic Blood Pressure at Wk 8 / Mean (SD) Change from Baseline at Week 8 in Automated Office-Measured Diastolic Blood Pressure: Part 1, 12.5 mg BID
# Method: A randomized, double-blinded, placebo-controlled, dose-ranging, multicenter study was conducted to evaluate the effect of orally administered Compound A HBr on blood pressure for the treatment of hypertension in male and female subjects ≥18 years of age.
# The study consists of two parts. For enrollment into Part 1 of the study, a subject's value of plasma renin activity (PRA) must be ≤1 ng/mL/h based on morning measurement. If the value of PRA >1 ng/mL/h based on morning measurement, then subjects may be eligible to enter Part 2 of the study.
# For Part 1, 163 enrolled subjects ≥18 years of age were randomized into 6 equal treatment groups (1:1:1:1:1:1) to 12.5 mg BID, 25 mg BID, 12.5 mg QD, 50 mg QD, 100 mg QD, or placebo. After a review of interim clinical data, the 2 lowest dose levels (12.5 mg QD and 12.5 mg BID) were stopped for future randomization due to a lack of consistent meaningful reduction of blood pressure, but the patients randomized to that point remained in the study through completion. Thus, after the review of interim clinical data, subjects were randomized into 4 equal treatment groups (1:1:1:1) to 25 mg BID, 50 mg QD, 100 mg QD, or placebo.
# For Part 2, 36 enrolled subjects ≥18 years of age were randomized (5:1) to either 100 mg QD Compound A HBr or placebo such that the Compound A HBr treatment group consisted of approximately 30 subjects and the placebo treatment group will consist of approximately 6 subjects.
# Subjects orally administered the assigned study drug (Compound A HBr or placebo) according to the assigned dosing regimen for 8 weeks beginning on Study Day 1. All subjects in Part 1 (regardless of dosing group) received BID dosing to preserve the integrity of the blind; active drug is administered as the morning dose for all QD dose groups. Subjects returned to the research facility or were seen by the clinical investigator or approved home health care professional at the end of Study Weeks 1, 2, 3, 4, 5, 6, 7, and 8 (±2 days) for protocol-defined efficacy and safety assessments and procedures, assessment of adverse events (AEs), and confirmation of compliance with study drug usage. Subjects also completed a telephone visit and blood pressure (BP) check at home approximately 3 days post last dose of study drug. Subjects attended up to 14 full clinic visits, including a pre-Screening visit, a Screening/start of Placebo Run-in visit, a second visit during Placebo Run-in, a clinic visit to initiate the ABPM procedure, a Randomization visit, 8 weekly visits during double-blind treatment, and an end-of-study visit scheduled 4 weeks after the last study treatment for final efficacy and safety assessments.
# An automated oscillometric sphygmomanometer device was used to measure the subjects' systolic and diastolic blood pressure in office after approximately 5 minutes of rest in the seated position.
# The primary endpoint is the change in office-measured (mean of last 2 of 5 unattended measurements using an automated oscillometric sphygmomanometer device after approximately 5 minutes of rest in the seated position) systolic blood pressure (SBP) from baseline to the end of Study Week 8.
# Secondary endpoints of this study were: • (a) Change in 24-hour ambulatory blood pressure monitoring (ABPM) parameters (systolic and diastolic) from baseline to the end of Study Week 7. • (b) Change in office-measured SBP from baseline to the end of Study Weeks 1, 2, 3, 4, 5, 6, and 7. • (c) Change in office-measured diastolic blood pressure (DBP) from baseline to the end of Study Weeks 1, 2, 3, 4, 5, 6, 7, and 8. • (d) Proportion of subjects who achieve office-measured BP of ≤130/80 mm Hg by the end of Study Week 8.
smiles,measurement,setting,value
CC(=O)N[C@H]1CC[C@H](NC(=O)CN2CCN(c3nncc(-c4ccc(C)cc4)n3)CC2)CC1 [Compound A HBr],Subjects with seated AOBP SBP/DBP ≤130/80 mmHg: No,"100 mg QD, Week 8, Part 2, FAS",14 (45.2) n (%)
same,Subjects with seated AOBP SBP/DBP ≤130/80 mmHg: Yes,"100 mg QD, Week 8, Part 2, FAS",17 (54.8) n (%)
same,"Placebo-adjusted reduction in AOBP SBP, exploratory MMRM analysis by BMI",Part 1 50 mg QD cohort,−16.7 mmHg
same,"Placebo-adjusted reduction in AOBP SBP, exploratory MMRM analysis by BMI",Part 1 100 mg QD cohort,−12.3 mmHg
same,Mean (SD) Automated Office-Measured Systolic Blood Pressure at Wk 8,ACEi/ARB No,131.50 (16.22) mmHg
same,Mean (SD) Change from Baseline at Week 8 in Automated Office-Measured Systolic Blood Pressure,ACEi/ARB No,−18.75 (21.77) mmHg
same,Mean (SD) Automated Office-Measured Systolic Blood Pressure at Wk 8,ACEi/ARB Yes,132.00 (12.59) mmHg
same,Mean (SD) Change from Baseline at Week 8 in Automated Office-Measured Systolic Blood Pressure,ACEi/ARB Yes,−12.47 (17.09) mmHg
same,Mean (SD) Automated Office-Measured Diastolic Blood Pressure at Wk 8,ACEi/ARBs No,76.25 (12.37) mmHg
same,Mean (SD) Change from Baseline at Week 8 in Automated Office-Measured Diastolic Blood Pressure,ACEi/ARBs No,−4.00 (8.79) mmHg
same,Mean (SD) Automated Office-Measured Diastolic Blood Pressure at Wk 8,ACEi/ARBs Yes,74.93 (9.86) mmHg
same,Mean (SD) Change from Baseline at Week 8 in Automated Office-Measured Diastolic Blood Pressure,ACEi/ARBs Yes,−6.33 (9.02) mmHg
same,Mean (SD) Automated Office-Measured Diastolic Blood Pressure at Wk 8,AHTs 2,79.67 (11.78) mmHg
same,Mean (SD) Automated Office-Measured Systolic Blood Pressure at Wk 8,AHTs 2,136.33 (11.76) mmHg
same,Mean (SD) Change from Baseline at Week 8 in Automated Office-Measured Diastolic Blood Pressure,AHTs 2,−5.25 (7.78) mmHg
same,Mean (SD) Change from Baseline at Week 8 in Automated Office-Measured Systolic Blood Pressure,AHTs 2,−8.33 (13.28) mmHg
same,Mean (SD) Automated Office-Measured Diastolic Blood Pressure at Wk 8,AHTs ≥3,73.15 (8.93) mmHg
same,Mean (SD) Automated Office-Measured Systolic Blood Pressure at Wk 8,AHTs ≥3,129.85 (13.37) mmHg
same,Mean (SD) Change from Baseline at Week 8 in Automated Office-Measured Diastolic Blood Pressure,AHTs ≥3,−6.12 (9.49) mmHg
same,Mean (SD) Change from Baseline at Week 8 in Automated Office-Measured Systolic Blood Pressure,AHTs ≥3,−16.31 (19.35) mmHg
same,Mean (SD) Automated Office-Measured Diastolic Blood Pressure at Wk 8,Age 65-79 yr,76.18 (7.87) mmHg
same,Mean (SD) Automated Office-Measured Systolic Blood Pressure at Wk 8,Age 65-79 yr,135.73 (11.26) mmHg
same,Mean (SD) Change from Baseline at Week 8 in Automated Office-Measured Diastolic Blood Pressure,Age 65-79 yr,−3.18 (7.91) mmHg
same,Mean (SD) Change from Baseline at Week 8 in Automated Office-Measured Systolic Blood Pressure,Age 65-79 yr,−12.77 (19.08) mmHg
same,Mean (SD) Automated Office-Measured Diastolic Blood Pressure at Wk 8,Age <65 yr,79.17 (9.58) mmHg
same,Mean (SD) Automated Office-Measured Systolic Blood Pressure at Wk 8,Age <65 yr,132.17 (11.13) mmHg
same,Mean (SD) Change from Baseline at Week 8 in Automated Office-Measured Diastolic Blood Pressure,Age <65 yr,−5.67 (5.02) mmHg
same,Mean (SD) Change from Baseline at Week 8 in Automated Office-Measured Systolic Blood Pressure,Age <65 yr,−6.92 (7.84) mmHg
same,Mean (SD) Automated Office-Measured Diastolic Blood Pressure at Wk 8,Age ≥80 yr,58.00 (7.07) mmHg
same,Mean (SD) Automated Office-Measured Systolic Blood Pressure at Wk 8,Age ≥80 yr,110.00 (1.41) mmHg
same,Mean (SD) Change from Baseline at Week 8 in Automated Office-Measured Diastolic Blood Pressure,Age ≥80 yr,−21.00 (9.90) mmHg
same,Mean (SD) Change from Baseline at Week 8 in Automated Office-Measured Systolic Blood Pressure,Age ≥80 yr,−40.00 (4.24) mmHg
same,Mean (SD) Automated Office-Measured Diastolic Blood Pressure at Wk 8,BMI 25−30 kg/m^2,71.75 (9.07) mmHg
same,Mean (SD) Change from Baseline at Week 8 in Automated Office-Measured Diastolic Blood Pressure,BMI 25−30 kg/m^2,−8.00 (7.56) mmHg
same,Mean (SD) Automated Office-Measured Diastolic Blood Pressure at Wk 8,BMI <25 kg/m^2,92.00 (NE) mmHg
same,Mean (SD) Change from Baseline at Week 8 in Automated Office-Measured Diastolic Blood Pressure,BMI <25 kg/m^2,6.00 (NE) mmHg
same,Mean (SD) Automated Office-Measured Diastolic Blood Pressure at Wk 8,BMI >30 kg/m^2,75.00 (9.80) mmHg
same,Mean (SD) Change from Baseline at Week 8 in Automated Office-Measured Diastolic Blood Pressure,BMI >30 kg/m^2,−6.07 (9.01) mmHg
same,Mean (SD) Automated Office-Measured Systolic Blood Pressure at Wk 8,BMI at baseline 25-30 kg/m^2,125.50 (14.89) mmHg
same,Mean (SD) Change from Baseline at Week 8 in Automated Office-Measured Systolic Blood Pressure,BMI at baseline 25-30 kg/m^2,−23.88 (24.55) mmHg
same,Mean (SD) Automated Office-Measured Systolic Blood Pressure at Wk 8,BMI at baseline <25 kg/m^2,150.00 (NE) mmHg
same,Mean (SD) Change from Baseline at Week 8 in Automated Office-Measured Systolic Blood Pressure,BMI at baseline <25 kg/m^2,2.50 (NE) mmHg
same,Mean (SD) Automated Office-Measured Systolic Blood Pressure at Wk 8,BMI at baseline >30 kg/m^2,132.43 (11.93) mmHg
same,Mean (SD) Change from Baseline at Week 8 in Automated Office-Measured Systolic Blood Pressure,BMI at baseline >30 kg/m^2,−12.07 (15.48) mmHg
same,Mean (SD) Automated Office-Measured Diastolic Blood Pressure at Wk 8,Race Black or AA,79.14 (8.49) mmHg
same,Mean (SD) Automated Office-Measured Systolic Blood Pressure at Wk 8,Race Black or AA,137.71 (13.50) mmHg
